One assay has as its target GLP-1R (Homo sapiens, UniProt P43220). Kind of assay: HitHunter cAMP assay (GLP-1R). Format: cell-based. As to conditions: Table 3A, cAMP; for Emax: read-out: (Emax) GLP-1R; for EC50: read-out: EC50 GLP-1R/nM. A digest of the protocol:
(§1)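 Suspension cells (10,000/well) in HBSS with 10 mM HEPES, 625 μM IBMX, 0.2% BSA exposed to 22-point 2-fold agonist series in duplicate for 30 min at room temperature. cAMP measured by antibody immunocompetition with overnight development, luminescence read-out.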
For orientation: Cyclic AMP is a second messenger, typically raised through Gs and lowered through Gi signalling.

A further assay addresses T1, GIP-R (Homo sapiens, UniProt P48546).
T1 sequence (P48546 22-466): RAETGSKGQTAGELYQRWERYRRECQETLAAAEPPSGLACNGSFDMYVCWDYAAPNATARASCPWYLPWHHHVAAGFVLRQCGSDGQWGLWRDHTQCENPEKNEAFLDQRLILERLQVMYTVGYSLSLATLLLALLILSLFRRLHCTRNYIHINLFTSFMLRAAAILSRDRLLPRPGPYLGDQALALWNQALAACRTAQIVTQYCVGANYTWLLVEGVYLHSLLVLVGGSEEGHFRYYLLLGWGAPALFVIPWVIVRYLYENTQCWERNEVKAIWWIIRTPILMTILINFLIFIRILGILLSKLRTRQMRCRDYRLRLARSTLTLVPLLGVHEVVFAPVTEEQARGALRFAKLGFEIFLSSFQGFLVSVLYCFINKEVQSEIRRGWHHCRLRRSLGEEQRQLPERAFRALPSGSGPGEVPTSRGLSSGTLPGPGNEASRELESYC
Kind of assay: HitHunter cAMP assay (GIP-R). The format is cell-based. To be noted: Table 3A, cAMP; for Emax: read-out: (Emax) GIP-R; for EC50: read-out: EC50 GIP-R/nM. A digest of the protocol:
as §1

SMILES strings stand for the structures. Numbered stars: 1 amine (or outer) side, 2 acyl side, 3 side chain; on linkers, the order of the positions; unused ones are H or OH. Square brackets hold non-standard residues; d marks the D form. Side chains are listed from the residue outwards. Peptide text beside a SMILES is read from it. * marks the point of attachment. γGlu = O=C(O)[C@H](CCC(=O)[*:2])N[*:1]; X2 = O=C(CSCC(=O)*)NCCN1C(=O)CSC1=O; Palmitoyl = CCCCCCCCCCCCCCCC(=O)*; Aib = CC(C)(N)C(=O)O

What is called Emax is the size of the effect at its maximum, as opposed to the concentration needed.

Sequence of GLP-1R (P43220 24-463): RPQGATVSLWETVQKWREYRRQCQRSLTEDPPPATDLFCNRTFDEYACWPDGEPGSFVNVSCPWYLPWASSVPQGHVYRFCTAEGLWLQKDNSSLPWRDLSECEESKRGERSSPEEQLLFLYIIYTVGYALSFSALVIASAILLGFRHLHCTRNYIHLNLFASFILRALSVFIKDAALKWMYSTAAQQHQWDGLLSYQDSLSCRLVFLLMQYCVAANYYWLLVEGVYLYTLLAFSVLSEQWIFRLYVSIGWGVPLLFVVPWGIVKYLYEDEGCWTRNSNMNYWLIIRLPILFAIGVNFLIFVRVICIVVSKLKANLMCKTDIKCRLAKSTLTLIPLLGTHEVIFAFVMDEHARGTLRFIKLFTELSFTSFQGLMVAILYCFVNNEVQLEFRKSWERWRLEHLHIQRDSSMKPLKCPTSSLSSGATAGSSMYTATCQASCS

Turning to `CCCCCCCCCCCCCCCC(=O)N[C@@H](CCC(=O)NCCCC[C@H](NC(=O)[C@H](CO)NC(=O)[C@@H]1CCCN1C(=O)[C@@H]1CCCN1C(=O)[C@@H]1CCCN1C(=O)[C@H](C)NC(=O)CNC(=O)[C@H](CO)NC(=O)[C@H](CO)NC(=O)[C@@H]1CCCN1C(=O)CNC(=O)CNC(=O)[C@H](C)NC(=O)[C@H](CC(C)C)NC(=O)[C@H](CC(C)C)NC(=O)[C@H](Cc1c[nH]c2ccccc12)NC(=O)[C@H](CC(N)=O)NC(=O)[C@@H](NC(=O)[C@H](Cc1ccccc1)NC(=O)[C@H](CCC(=O)O)NC(=O)C(C)(C)NC(=O)[C@H](C)NC(=O)[C@H](C)NC(=O)[C@H](CCC(N)=O)NC(=O)[C@H](CCCCN)NC(=O)[C@H](CC(=O)O)NC(=O)[C@H](CC(C)C)NC(=O)[C@H](Cc1ccc(O)cc1)NC(=O)[C@@H](NC(=O)[C@H](CO)NC(=O)[C@H](Cc1ccc(O)cc1)NC(=O)[C@H](CC(=O)O)NC(=O)[C@H](CO)NC(=O)[C@@H](NC(=O)[C@H](Cc1ccccc1)NC(=O)[C@@H](NC(=O)CNC(=O)[C@H](CCC(=O)O)NC(=O)CSCC(=O)NCCN1C(=O)CSC1=O)[C@@H](C)O)[C@@H](C)O)[C@@H](C)CC)C(C)C)C(=O)O)C(=O)O` [Compound 199], on GLP-1R, the Emax is 92% and the EC50 fell in the range of 0.1 to 1 nM. Also, on GIP-R, the Emax came out at 78% and the EC50 is 1 to 10 nM.

In the case of `CCCCCCCCCCCCCCCC(=O)N[C@@H](CCC(=O)NCCCC[C@H](NC(=O)[C@H](C)NC(=O)[C@H](C)NC(=O)[C@H](CCC(N)=O)NC(=O)[C@H](CCCCN)NC(=O)[C@H](CC(=O)O)NC(=O)[C@H](CC(C)C)NC(=O)[C@H](Cc1ccc(O)cc1)NC(=O)[C@@H](NC(=O)[C@H](CO)NC(=O)[C@H](Cc1ccc(O)cc1)NC(=O)[C@H](CC(=O)O)NC(=O)[C@H](CO)NC(=O)[C@@H](NC(=O)[C@H](Cc1ccccc1)NC(=O)[C@@H](NC(=O)CNC(=O)[C@H](CCC(=O)O)NC(=O)CSCC(=O)NCCN1C(=O)CSC1=O)[C@@H](C)O)[C@@H](C)O)[C@@H](C)CC)C(=O)N[C@@H](CCC(=O)O)C(=O)N[C@@H](Cc1ccccc1)C(=O)N[C@H](C(=O)N[C@@H](CC(N)=O)C(=O)N[C@@H](Cc1c[nH]c2ccccc12)C(=O)N[C@@H](CC(C)C)C(=O)N[C@@H](CC(C)C)C(=O)N[C@@H](C)C(=O)NCC(=O)NCC(=O)N1CCC[C@H]1C(=O)N[C@@H](CO)C(=O)N[C@@H](CO)C(=O)NCC(=O)N[C@@H](C)C(=O)N1CCC[C@H]1C(=O)N1CCC[C@H]1C(=O)N1CCC[C@H]1C(=O)N[C@@H](CO)C(=O)N[C@@H](CCCCN)C(N)=O)C(C)C)C(=O)O` [Compound 200], the Emax came to 89% on GLP-1R and 66% at GIP-R. The EC50 lay in the range of 10 to 100 nM at GLP-1R and 100 to 1000 nM at GIP-R.

With `CCCCCCCCCCCCCCCC(=O)N[C@@H](CCC(=O)NCCCC[C@H](NC(=O)[C@H](CC(=O)O)NC(=O)[C@H](CO)NC(=O)[C@@H](NC(=O)[C@H](Cc1ccccc1)NC(=O)[C@@H](NC(=O)CNC(=O)[C@H](CCC(=O)O)NC(=O)CSCC(=O)NCCN1C(=O)CSC1=O)[C@@H](C)O)[C@@H](C)O)C(=O)N[C@@H](CO)C(=O)N[C@H](C(=O)N[C@@H](Cc1ccc(O)cc1)C(=O)N[C@@H](CC(C)C)C(=O)N[C@@H](CC(=O)O)C(=O)N[C@@H](CCCCN)C(=O)N[C@@H](CCC(N)=O)C(=O)N[C@@H](C)C(=O)N[C@@H](C)C(=O)NC(C)(C)C(=O)N[C@@H](CCC(=O)O)C(=O)N[C@@H](Cc1ccccc1)C(=O)N[C@H](C(=O)N[C@@H](CC(N)=O)C(=O)N[C@@H](Cc1c[nH]c2ccccc12)C(=O)N[C@@H](CC(C)C)C(=O)N[C@@H](CC(C)C)C(=O)N[C@@H](C)C(=O)NCC(=O)NCC(=O)N1CCC[C@H]1C(=O)N[C@@H](CO)C(=O)N[C@@H](CO)C(=O)NCC(=O)N[C@@H](C)C(=O)N1CCC[C@H]1C(=O)N1CCC[C@H]1C(=O)N1CCC[C@H]1C(=O)N[C@@H](CO)C(=O)N[C@@H](CCCCN)C(N)=O)C(C)C)[C@@H](C)CC)C(=O)O` [Compound 201] (X2-EGTFTSDK([γGlu-Palmitoyl])SIYLDKQAA[Aib]EFVNWLLAGGPSSGAPPPSK-NH2), on GLP-1R, the Emax was found to be 99% and the EC50 was in the range of 1 to 10 nM. Besides, on GIP-R, the Emax was 105% and the EC50 lay in the range of 1 to 10 nM.

As to `CCCCCCCCCCCCCCCC(=O)N[C@@H](CCC(=O)NCCCC[C@H](NC(=O)[C@H](CO)NC(=O)[C@@H]1CCCN1C(=O)[C@@H]1CCCN1C(=O)[C@@H]1CCCN1C(=O)[C@H](C)NC(=O)CNC(=O)[C@H](CO)NC(=O)[C@H](CO)NC(=O)[C@@H]1CCCN1C(=O)CNC(=O)CNC(=O)[C@H](C)NC(=O)[C@H](CC(C)C)NC(=O)[C@H](CC(C)C)NC(=O)[C@H](Cc1c[nH]c2ccccc12)NC(=O)[C@H](CC(N)=O)NC(=O)[C@@H](NC(=O)[C@H](Cc1ccccc1)NC(=O)[C@H](CCC(=O)O)NC(=O)C(C)(C)NC(=O)[C@H](C)NC(=O)[C@H](C)NC(=O)[C@H](CCC(N)=O)NC(=O)[C@H](CCCCN)NC(=O)[C@H](CC(=O)O)NC(=O)[C@H](CC(C)C)NC(=O)[C@H](Cc1ccc(O)cc1)NC(=O)[C@@H](NC(=O)[C@H](CO)NC(=O)[C@H](Cc1ccc(O)cc1)NC(=O)[C@H](CC(=O)O)NC(=O)[C@H](CO)NC(=O)[C@@H](NC(=O)[C@H](Cc1ccccc1)NC(=O)[C@@H](NC(=O)CNC(=O)[C@H](CCCC(=O)O)NC(=O)CSCC(=O)NCCN1CCCCC1=O)[C@@H](C)O)[C@@H](C)O)[C@@H](C)CC)C(C)C)C(N)=O)C(=O)O` [Compound 219], on GLP-1R, the Emax stood at 89% and the EC50 was 10 to 100 nM. Also, on GIP-R, the Emax is 75% and the EC50 was in the range of 1 to 10 nM.

`CCCCCCCCCCCCCCCC(=O)N[C@@H](CCC(=O)NCCCC[C@H](NC(=O)[C@H](CO)NC(=O)[C@@H]1CCCN1C(=O)[C@@H]1CCCN1C(=O)[C@@H]1CCCN1C(=O)[C@H](C)NC(=O)CNC(=O)[C@H](CO)NC(=O)[C@H](CO)NC(=O)[C@@H]1CCCN1C(=O)CNC(=O)CNC(=O)[C@H](C)NC(=O)[C@H](CC(C)C)NC(=O)[C@H](CC(C)C)NC(=O)[C@H](Cc1c[nH]c2ccccc12)NC(=O)[C@H](CC(N)=O)NC(=O)[C@@H](NC(=O)[C@H](Cc1ccccc1)NC(=O)[C@H](CCC(=O)O)NC(=O)C(C)(C)NC(=O)[C@H](C)NC(=O)[C@H](C)NC(=O)[C@H](CCC(N)=O)NC(=O)[C@H](CCCCN)NC(=O)[C@H](CC(=O)O)NC(=O)[C@H](CC(C)C)NC(=O)[C@H](Cc1ccc(O)cc1)NC(=O)[C@@H](NC(=O)[C@H](CO)NC(=O)[C@H](Cc1ccc(O)cc1)NC(=O)[C@H](CC(=O)O)NC(=O)[C@H](CO)NC(=O)[C@@H](NC(=O)[C@H](Cc1ccccc1)NC(=O)[C@@H](NC(=O)CNC(=O)[C@H](CCc1nn[nH]n1)NC(=O)CSCC(=O)NCCN1CCCCC1=O)[C@@H](C)O)[C@@H](C)O)[C@@H](C)CC)C(C)C)C(N)=O)C(=O)O` [Compound 221]: the Emax on GLP-1R was 95%; at GIP-R it was 68%. In addition, the EC50 at GLP-1R and on GIP-R was 1 to 10 nM in each case.

The values above are taken from US20260176320A1, “MODULATORS OF G-PROTEIN COUPLED RECEPTORS” (priority 2018, published 2026).
